The numbers were not newly measured in patent US11819781B2, “Device for solid phase extraction and method for use thereof” (Waters Technologies Corporation, priority 2014, dated 2023), which cites them from elsewhere.

The conditions of this data set: analyte characteristics; for Log P: octanol:water.

As usually defined, the Log P is a log measure of how a compound divides between an organic and an aqueous phase. With `CNCCCC1c2ccccc2C=Cc2ccccc21` [Protriptyline], the “Log P” value is recorded as 4.4.
Turning to `C[C@H]1C[C@H]2[C@@H]3CCC4=CC(=O)C=C[C@]4(C)[C@@]3(F)[C@@H](O)C[C@]2(C)[C@@]1(O)C(=O)CO` [Betamethasone], the log partition coefficient (Log P) was 1.1.
By pKa is commonly meant the pH at which an ionisable group is half protonated. Take `CN(C)CCC=C1c2ccccc2CCc2ccccc21` [Amitriptyline]: the pKa is reported as 9.7 and the “Log P” value is listed as 4.8.
